Here are results for 19 molecules from PubChem BioAssay (NCI).

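Where inhibition never reached the appropriate level, the endpoint shown equals the highest concentration tested. Otherwise, values were interpolated linearly from a five-concentration, 48-hour dose response in 96-well plates. The concentration for 50% growth inhibition is given as GI50. TGI: total growth inhibition.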 Some results are limits rather than exact numbers.

Common to all, as to test: inhibition of tumour cell growth, NCI panel, 48 h
Test [1] has as its system HT29 colon.
The subject of test [2] is EKVX NSCLC.
For test [3], the system named is SF-268 CNS.
Test [4] concerns U251 CNS.
Test [5] has as its system K-562 leukemia.
The subject of test [6] is TK-10 renal.
Test [7] deals with SN12C renal.
Test [8] concerns M14 melanoma.
The test system of test [9] is HOP-62 NSCLC.

Consider `O=C(Oc1ccc(O)c2c(=O)n3c(cc12)[nH]c1ccccc13)c1ccccc1`, for which the GI50 was 33.5 µM in [1]; 24.3 µM in test [2]; 61 µM in test [3]; 10.1 µM in test [4]; 24.4 µM in test [5]; 18.8 µM in test [6]. Further, the GI50 in test [7] is 12.6 µM; in [8], 17.9 µM; in test [9], 22.4 µM. In addition, the TGI in test [1] is above 100 µM; in test [2] it was above 100 µM; in [3] it was above 100 µM; in test [4], 27.4 µM; in test [5], 64 µM; in [6], 40.8 µM. The values for the TGI in test [7], in test [8] and in test [9] were 54 µM, 37 µM and 54.5 µM, respectively.
`COc1cc2nc(-c3ccc(C(F)(F)F)cc3)cc(OCCCN3CCOCC3)c2cc1OC`: the GI50 is 0.54 µM in test [1]; 1.61 µM in [2]; 5.7 µM in test [3]; 1.4 µM in test [4]; 1.18 µM in test [5]; 13.9 µM in test [6]. Also, the GI50 in test [7] was 0.675 µM; in test [8], 0.355 µM; in test [9], 1.67 µM. In addition, the TGI is 15.7 µM in test [1]; 19.6 µM in test [2]; 27.9 µM in test [3]; 14.3 µM in test [4]; 15.9 µM in test [5]; 30.6 µM in test [6]. In addition, the TGI was 19.7 µM in test [7], 1.55 µM in [8] and 13.1 µM in test [9].
Consider `CCN(CC)c1ccc(N=Nc2ccc(-c3nc4cccnc4o3)cc2)cc1`, for which the TGI in test [1], in test [2], in test [3], in test [4], in test [5] and in test [6] was above 100 µM throughout. The TGI in test [7], in test [8] and in [9] was above 100 µM in each case.
As for `COC(=O)CCC/C=C\C[C@H]1C=CC(=O)/C1=C/C[C@@H](O)CCc1cccc(C(F)(F)F)c1`, the GI50 was 2.64 µM in [1]; 4.52 µM in test [2]; 3.09 µM in [3]; 2.06 µM in [4]; 2.23 µM in test [5]; 4.49 µM in test [6]. For the same molecule, the GI50 is 4.2 µM in test [7], 2.1 µM in test [8] and 3.32 µM in test [9]. Further, the TGI in test [1] amounted to 6.06 µM; in test [2], 16.4 µM; in test [3], 11.4 µM; in test [4], 4.96 µM; in test [5], 7.98 µM; in test [6] it was 12.4 µM. The results for the TGI in test [7], in [8] and in test [9] were 16.9 µM, 6.07 µM and 9.15 µM, respectively.
Regarding `CCCCNc1nc(NC(C)(C)C)nc(NC(C)(C)C)n1`, the GI50 was 2.37 µM in test [1]; 3.12 µM in test [2]; 48.4 µM in test [3]; 5.92 µM in test [4]; 6.46 µM in test [5]; 52.6 µM in test [6]. The GI50 in test [7] was 3.1 µM; in [8] it was 15.7 µM; in [9] it was 18.7 µM. Besides, the TGI in test [1] is above 100 µM; in test [2] it was above 100 µM; in [3], above 100 µM; in [4] it was 36.7 µM; in test [5], above 100 µM; in test [6] it was above 100 µM. Further, the TGI in test [7], in [8] and in test [9] was above 100 µM each time.
For the molecule `Clc1nc(Oc2ccccc2)nc(-c2cn(-c3ccccc3)c3ccccc23)n1`, the GI50 in [1] was 3.36 µM; in test [2], 14.6 µM; in test [3], 4.28 µM; in [4], 2.53 µM; in test [5], 0.4 µM; in [6], 28.7 µM. In addition, the results for the GI50 in test [7], in [8] and in test [9] were 6.18 µM, 5.32 µM and 15.2 µM, respectively. Also, the TGI amounted to 11.5 µM in test [1]; 46.9 µM in test [2]; 13.9 µM in test [3]; 6.36 µM in test [4]; 18.1 µM in test [5]; 67.1 µM in [6]. Moreover, the TGI in test [7] came to 20.1 µM; in [8] it was 17.1 µM; in test [9], 29.4 µM.
With `CCOC(=O)[C@@H](C)C[C@H](Cc1ccccc1)NC(=O)c1csc([C@@H](C[C@H](C(C)C)N(C)C(=O)[C@@H](NC(=O)[C@H]2C[C@H](O[Si](C)(C)C(C)(C)C)CCN2C)C(C)C)OC(C)=O)n1`, the GI50 is 0.267 µM in test [1]; 0.505 µM in test [2]; 0.441 µM in [3]; 0.319 µM in [4]; 0.17 µM in test [5]; 0.946 µM in [6]. Moreover, the results for the GI50 in test [7], in test [8] and in test [9] were 0.389 µM, 0.198 µM and 0.411 µM, respectively. In addition, the TGI is 1.96 µM in [1]; above 8.33 µM in [2]; above 8.33 µM in test [3]; above 4.18 µM in [4]; above 5.06 µM in test [5]; above 8.33 µM in [6]. Further, the TGI is 6.42 µM in test [7], 1.03 µM in test [8] and above 8.01 µM in test [9].
As to `CCN(CC)CCNc1c(OC)cc(C)c2sc3ccccc3c(=O)c12`, the TGI came out at 6.42 µM in test [1]; 32.5 µM in test [2]; 25.7 µM in [3]; 16 µM in test [4]; 4.04 µM in test [5]; 21 µM in test [6]. In addition, the TGI in test [7] worked out at 9.92 µM; in test [8], 12.1 µM; in test [9] it was 25 µM.
For `C=CCNC(=S)N1CC(C)C(=O)Nc2ccccc21` (stereo not given), the TGI in test [1], in test [2], in test [3], in test [4], in test [5] and in [6] was above 100 µM throughout. The TGI in [7], in [8] and in test [9] was above 100 µM in each case.
On to `S=C(Nc1ccc(-c2nc3ccccc3[nH]2)cc1)NC1CCCCC1`, for which the GI50 in [1] was 34.4 µM; in test [2], 28.5 µM; in [3] it was 33.1 µM; in [4], 19.7 µM; in test [5], 31.5 µM; in test [6], 22.8 µM. Further, the GI50 in test [7] is 25 µM; in test [8] it was 22.6 µM; in [9], 55.7 µM. In addition, the TGI was above 100 µM in test [1]; 45.2 µM in test [4]; 80.6 µM in test [6]; 55 µM in test [7]; 53.3 µM in test [8]; above 100 µM in test [9].
Consider `CC(=O)NC(CCCCNC(=O)OCc1ccccc1)C(=O)NCc1ccccc1` (stereo not given), for which the TGI in [1], in test [2], in [3], in test [4], in test [5] and in [6] was above 100 µM throughout. The TGI in [7], in test [8] and in test [9] was above 100 µM throughout.
As to `COc1cc(-c2cnn(C)c2)ccc1Nc1ncc2ccnc(N[C@@H](C)C(C)(C)C)c2n1`, the GI50 in [1] is above 50.6 µM; in test [2], above 100 µM; in test [3], above 41.5 µM; in test [4], above 55.8 µM; in test [5], above 72.8 µM; in test [6] it was above 79.9 µM. Also, the values for the GI50 in test [7], in test [8] and in [9] were above 100 µM, above 63.8 µM and above 38.3 µM, respectively. The TGI in [1], in test [2], in test [3], in test [4], in [5] and in [6] was above 100 µM in each case. Moreover, the TGI in [7], in [8] and in [9] was above 100 µM each time.
Regarding `CCOc1ccc(/C=C/C(=O)c2ccccc2)cc1`, the GI50 in test [1] was 13.8 µM; in test [2] it was 16 µM; in test [3], 18.7 µM; in [4], 7.19 µM; in test [5], 8.05 µM; in [6], 17.9 µM. Further, the GI50 in test [7] is 18.3 µM; in test [8], 18.8 µM; in test [9] it was 18.1 µM. For the same molecule, the TGI in test [1] was 29.6 µM; in test [2], 30.6 µM; in test [3], 36.9 µM; in test [4] it was 20.7 µM; in [5], 80.8 µM; in test [6], 34.9 µM. For the same molecule, the TGI is 37 µM in [7], 38.9 µM in test [8] and 35.4 µM in test [9].
Take `COc1ccc2c(c1)sc1nc(-c3ccccc3)c(-c3ccsc3)n12`: the GI50 in test [1] is 2.95 µM; in [2], 7.76 µM; in test [3], 8.54 µM; in [4], 3.72 µM; in test [5], 0.878 µM; in test [6], 37.7 µM. The results for the GI50 in test [7], in [8] and in test [9] were 12.1 µM, 2.64 µM and 7.86 µM, respectively. Moreover, the TGI is 10.5 µM in test [1]; above 100 µM in test [2]; above 100 µM in test [3]; above 100 µM in test [4]; above 100 µM in test [5]; above 100 µM in [6]. The TGI in [7], in test [8] and in [9] was above 100 µM in each case.
As for `Nc1c(C(=O)c2ccccc2)sc2nc(-c3cccs3)ccc12`, the GI50 in [1] was 0.365 µM; in test [2] it was 0.285 µM; in test [3], 0.664 µM; in test [4], 0.281 µM; in test [5], 0.0467 µM; in test [6], 0.414 µM. The results for the GI50 in [7], in test [8] and in [9] were 0.692 µM, 0.0924 µM and 0.276 µM, respectively. Moreover, the TGI is 3.3 µM in test [1]; 17.5 µM in test [2]; 15.5 µM in [3]; 14.1 µM in test [4]; 20.5 µM in test [5]; 5.79 µM in [6]. In addition, the TGI in test [7] came to 27.4 µM; in [8], 13.3 µM; in test [9], 17.8 µM.
With `CCCC(=O)c1c(NOC2OC(COC(C)=O)C(OC(C)=O)C(OC(C)=O)C2OC(C)=O)nc(OC)n(C)c1=O` (stereo not given), the TGI in test [1], in test [2], in [3], in test [4], in test [5] and in test [6] was above 100 µM throughout. Further, the TGI in test [7], in test [8] and in test [9] was above 100 µM each time.
In the case of `CC(C)c1ccc(Cc2cnc(NC(=O)c3cc(Br)cs3)s2)cc1`, the GI50 in test [1] was 4.5 µM; in test [2], 4 µM; in [3] it was 5.89 µM; in test [4], 3.42 µM; in [5], 0.436 µM; in [6], 2.72 µM. Further, the GI50 in test [7] was 4.21 µM; in test [8], 2.44 µM; in test [9], 3.05 µM. The TGI is above 100 µM in test [1]; above 100 µM in test [2]; above 100 µM in test [3]; above 100 µM in test [4]; above 100 µM in [5]; 19.4 µM in test [6]. The TGI is above 100 µM in test [7], above 100 µM in [8] and 29.2 µM in test [9].
As to `C=CC(=O)N1CCCC(n2nc(-c3ccc(Oc4ccccc4)cc3)c3c(N)ncnc32)C1` (stereo not given), the GI50 in test [1] is 5.93 µM; in test [2] it was 0.164 µM; in [3], 3.12 µM; in test [4], 6.11 µM; in test [5] it was 4.13 µM; in [6] it was 0.0615 µM. Further, the figures for the GI50 in test [7], in [8] and in test [9] were 2.3 µM, 7.59 µM and 12.9 µM, respectively. For the same molecule, the TGI in [1] came out at 21 µM; in [2] it was 6.65 µM; in [3] it was 17.2 µM; in test [4], 20.4 µM; in test [5], 24.4 µM; in test [6], 3.94 µM. In addition, the TGI in [7] came to 16.1 µM; in test [8] it was 21.4 µM; in test [9], 26.1 µM.
`Cc1cc2nc3c(C(OC4OC(CO)C(O)C(O)C4O)C(O)CO)nn(-c4ccccc4)c3nc2cc1C` (stereo not given): the TGI in [1], in test [2], in test [3], in [4], in test [5] and in [6] was above 100 µM in each case. The TGI in test [7], in test [8] and in test [9] was above 100 µM each time.
